# Assay results published in patent US3952012A, “Aroyl-substituted pyrroles” (McNeil Laboratories, Incorporated, priority 1974, dated 1976).
# Test system: kaolin-induced rat paw edema
# Experiment: kaolin-induced rat paw edema assay: inhibition of paw swelling, single oral dose
# Format: in vivo, rat (male Holtzman)
# Conditions: 3.0 mg/kg
# Experimental: In the kaolin-induced rat paw edema assay, the ability of a compound, when administered in a single oral dose, to inhibit the swelling of the rat paw injected with a standard amount (0.1 ml.) of 10% kaolin suspension in saline is measured. For comparative purposes, the activity of the compound to be tested is measured against that produced by the known anti-inflammatory agent, phenylbutazone. Male Holtzman rats are used in the assay.
row,Structure (SMILES),inhibition
1,CCc1cc(CC(=O)O)n(C)c1C(=O)c1ccc(Cl)cc1 [5-(p-Chlorobenzoyl)-4-ethyl-1-methylpyrrole-2-acetic acid],29%
2,"Cc1cc(C(C)C(=O)O)n(C)c1C(=O)c1ccc(Cl)cc1 (stereo not drawn) [5-(p-Chlorobenzoyl)-1,4,α-trimethylpyrrole-2-acetic acid]",37%

# Same assay, conditions: 9.0 mg/kg
row,Structure (SMILES),inhibition
1,CCc1cc(CC(=O)O)n(C)c1C(=O)c1ccc(Cl)cc1 [5-(p-Chlorobenzoyl)-4-ethyl-1-methylpyrrole-2-acetic acid],47%
2,"Cc1cc(C(C)C(=O)O)n(C)c1C(=O)c1ccc(Cl)cc1 (stereo not drawn) [5-(p-Chlorobenzoyl)-1,4,α-trimethylpyrrole-2-acetic acid]",53%

# Same assay, conditions: 80 mg/kg, comparator
row,Structure (SMILES),inhibition
1,"CCCCC1C(=O)N(c2ccccc2)N(c2ccccc2)C1=O [phenylbutazone, reference compound]",30-40%

# Same assay, conditions: 100 mg/kg, comparator
row,Structure (SMILES),inhibition
1,"CCCCC1C(=O)N(c2ccccc2)N(c2ccccc2)C1=O [phenylbutazone, reference compound]",50-60%

# Same assay, conditions: Rattus norvegicus, po, Table I; 12.5 mg/kg p.o.; read-out: % INHIBITION (Average 10 rats)
row,Structure (SMILES),inhibition in vivo at 12.5 mg/kg
1,"Cc1ccccc1C(=O)c1ccc(CC(=O)O)n1C [5-(o-methylbenzoyl)-do, 1-Methyl-5-(o-toluoyl)-pyrrole-2-acetic acid]",34%

# Same assay, conditions: Rattus norvegicus, po, Table I; 25 mg/kg p.o.; read-out: % INHIBITION (Average 10 rats)
row,Structure (SMILES),inhibition in vivo at 25 mg/kg
1,"Cc1ccc(C(=O)c2ccc(CC(=O)O)n2C)cc1 [5-(p-methylbenzoyl)-do, 5-(p-Toluoyl)-1-methylpyrrole-2-acetic acid]",44%
2,"Cn1c(CC(=O)O)ccc1C(=O)c1ccc(N)cc1 [5-(p-aminobenzoyl)-do, 5-(p-Aminobenzoyl)-1-methylpyrrole-2-acetic acid]",23%
3,"COc1ccc(C(=O)c2ccc(CC(=O)O)n2C)cc1 [5-(p-methoxybenzoyl)-do, 5-(p-Anisoyl)-1-methylpyrrole-2-acetic acid]",42%
4,Cc1ccc(C(=O)c2ccc(CC(=O)O)n2C)s1 [1-Methyl-5-(5-methyl-2-thenoyl)-pyrrole-2-acetic acid],48%
5,"Cn1c(CC(=O)O)ccc1C(=O)c1ccc(F)cc1 [5-(p-fluorobenzoyl)-do, 5-(p-fluorobenzoyl)-1-methylpyrrole-2-acetic acid]",42%
6,"Cn1c(CC(=O)O)ccc1C(=O)c1ccc(Cl)cc1Cl [5-(2',4'-dichlorobenzoyl)-do, 5-(2',4'-Dichlorobenzoyl)-1-methylpyrrole-2-acetic acid]",51%
7,CCNC(=O)Cc1ccc(C(=O)c2ccc(Cl)cc2)n1C [5-(p-Chlorobenzoyl)-N-ethyl-1-methylpyrrole-2-acetamide],25%
8,"Cn1c(CC(=O)O)ccc1C(=O)c1cccs1 [5-(2-thenoyl)-do, 1-Methyl-5-(2-thenoyl)-pyrrole-2-acetic acid]",63%
9,"CCN(CC)C(=O)Cc1ccc(C(=O)c2ccc(Cl)cc2)n1C [5-(p-Chlorobenzoyl)-N,N-diethyl-1-methylpyrrole-2-acetamide]",36%
10,Cn1c(CC(=O)NO)ccc1C(=O)c1ccc(Cl)cc1 [5-(p-Chlorobenzoyl)-1-methylpyrrole-2-acetohydroxamic acid],33%
11,"Cn1c(CC(=O)O)ccc1C(=O)c1ccccc1Cl [5-(o-chlorobenzoyl)-do, 5-(o-Chlorobenzoyl)-1-methylpyrrole-2-acetic acid]",44%
12,CCN(CC)CCNC(=O)Cc1ccc(C(=O)c2ccc(Cl)cc2)n1C [5-(p-Chlorobenzoyl)-N-(2-diethylaminoethyl)-1-methylpyrrole-2-acetamide],27%
13,"Cn1c(CC(=O)O)ccc1C(=O)c1ccc(Br)cc1 [5-(p-bromobenzoyl)-do, 5-(p-bromobenzoyl)-1-methylpyrrole-2-acetic acid]",42%
14,Cn1c(CC(=O)O)ccc1C(=O)c1ccc(Cl)cc1 [5-(p-Chlorobenzoyl)-1-methylpyrrole-2-acetic acid],47%
15,CCOC(=O)Cc1ccc(C(=O)c2ccc(Cl)cc2)n1C [Ethyl 5-(p-chlorobenzoyl)-1-methylpyrrole-2-acetate],37%
16,COC(=O)Cc1ccc(C(=O)c2ccc(Cl)cc2)n1C [Methyl 5-(p-chlorobenzoyl)-1-methylpyrrole-2-acetate],38%
17,Cn1c(CCC(=O)O)ccc1C(=O)c1ccc(Cl)cc1 [5-(p-Chlorobenzoyl)-1-methylpyrrole-2-propionic acid],63%
18,CCC(C(=O)O)c1ccc(C(=O)c2ccc(Cl)cc2)n1C (stereo not drawn) [5-(p-Chlorobenzoyl)-α-ethyl-1-methylpyrrole-2-acetic acid],22%
19,O=C(O)Cc1ccc(C(=O)c2ccc(Cl)cc2)[nH]1 [5-(p-Chlorobenzoyl)-pyrrole-2-acetic acid],32%
20,"Cn1c(CC(=O)O)ccc1C(=O)c1ccccc1 [Example 5-benzoyl-do, 5-Benzoyl-1-methylpyrrole-2-acetic acid]",38%
21,"Cn1c(CC(=O)O)ccc1C(=O)c1cccc(Cl)c1 [5-(m-chlorobenzoyl)-do, 5-(m-Chlorobenzoyl)-1-methylpyrrole-2-acetic acid]",41%
22,"Cn1c(CC(=O)O)ccc1C(=O)c1ccc(C(F)(F)F)cc1 [5-(p-trifluoromethylbenzoyl)-do, 1-methyl-5-(p-trifluoromethylbenzoyl)-pyrrole-2-acetic acid]",60%

# Same assay, conditions: Rattus norvegicus, po, Table I; 50 mg/kg p.o.; read-out: % INHIBITION (Average 10 rats)
row,Structure (SMILES),inhibition in vivo at 50 mg/kg
1,Cc1c(CC(=O)O)c[nH]c1C(=O)c1ccc(Cl)cc1 [5-(p-Chlorobenzoyl)-4-methylpyrrole-3-acetic acid],43%
2,CC(C(=O)O)c1ccc(C(=O)c2ccc(Cl)cc2)n1C (racemic) [5-(p-chlorobenzoyl)-α-methyl-1-methylpyrrole-2-acetic acid],56%
3,O=C(O)Cc1ccc(C(=O)c2ccc(Cl)cc2)n1Cc1ccccc1 [1-Benzyl-5-(p-chlorobenzoyl)-pyrrole-2-acetic acid],23%
4,Cn1c(CC(N)=O)ccc1C(=O)c1ccc(Cl)cc1 [5-(p-Chlorobenzoyl)-1-methylpyrrole-2-acetamide],35%

# Same assay, conditions: Rattus norvegicus, po, Table I; 100 mg/kg p.o.; read-out: % INHIBITION (Average 10 rats)
row,Structure (SMILES),inhibition in vivo at 100 mg/kg
1,CCn1c(CC(=O)O)ccc1C(=O)c1ccc(Cl)cc1 [5-(p-Chlorobenzoyl)-1-ethylpyrrole-2-acetic acid],43%
2,"Cn1c(CC(=O)O)ccc1C(=O)c1ccc(C#N)cc1 [5-(p-cyanobenzoyl)-do, 5-(p-cyanobenzoyl)-1-methylpyrrole-2-acetic acid]",20%
3,"Cn1c(CC(=O)O)ccc1C(=O)c1ccc([N+](=O)[O-])cc1 [5-(p-nitrobenzoyl)-do, 5-(p-Nitrobenzoyl)-1-methylpyrrole-2-acetic acid]",35%
4,"Cc1cc(CC(=O)O)[nH]c1C(=O)c1ccccc1 [5-benzoyl-4-methylpyrrole-2-acetic acid, 5-Benzoyl-4-methylpyrrole-2-acetic acid]",34%

# Same assay, conditions: Table I; 25 mg/kg p.o.; 25 mg/kg
row,Structure (SMILES),% INHIBITION (Average 10 rats)
1,"CC(C(=O)O)c1ccc(C(=O)c2ccc(Cl)cc2)n1C (single isomer, unassigned; (+)) [(+)-5-(p-chlorobenzoyl)-α-methyl-1-methylpyrrole-2-acetic ac] [(+)-5-(p-chlorobenzoyl)-1,α-dimethylpyrrole-2-acetic acid]",62%
2,"CC(C(=O)O)c1ccc(C(=O)c2ccc(Cl)cc2)n1C (single isomer, unassigned; (-)) [(-)-5-(p-chlorobenzoyl)-α-methyl-1-methylpyrrole-2-acetic ac] [(-)-5-(p-chlorobenzoyl)-1,α-dimethylpyrrole-2-acetic acid]",24%

# Same assay, conditions: dose of 2.5 mg/kg
row,Structure (SMILES),inhibition
1,"Cc1cc(CC(=O)O)n(C)c1C(=O)c1ccc(Cl)cc1 [5-(p-chlorobenzoyl)-1,4-dimethylpyrrole-2-acetic acid]",51%

# Same assay, conditions: single oral dose 12.5 mg/kg
row,Structure (SMILES),inhibition
1,Cn1c(CC(=O)O)ccc1C(=O)c1ccc(Cl)cc1 [5-(p-Chlorobenzoyl)-1-methylpyrrole-2-acetic acid],about 35%

# Same assay, conditions: single oral dose 25 mg/kg
row,Structure (SMILES),inhibition
1,Cn1c(CC(=O)O)ccc1C(=O)c1ccc(Cl)cc1 [5-(p-Chlorobenzoyl)-1-methylpyrrole-2-acetic acid],about 47%

# Same assay, conditions: single oral doses of 50-100 mg/kg
row,Structure (SMILES),inhibition
1,Cn1c(CC(=O)O)ccc1C(=O)c1ccc(Cl)cc1 [5-(p-Chlorobenzoyl)-1-methylpyrrole-2-acetic acid],45-53%

# Test system: cotton pellet granuloma
# Experiment: cotton pellet granuloma assay: granuloma tissue formed around implanted cotton pellet
# Format: in vivo, rat (male Holtzman)
# Conditions: 25 mg/kg orally, daily for seven days; water controls 110 mg
# Experimental: In the cotton pellet granuloma assay, the ability of a compound, when administered orally to male Holtzman rats daily for seven days, to inhibit the amount of granuloma tissue formed in or around a cotton pellet implanted beneath the skin in the thoracic region of the animal is measured and compared to water controls. The method is described by Charles A. Winter and coworkers in J. Pharmacol., 141, 369 (1963). Analysis of variance is used to determine the significance of the results.
row,Structure (SMILES),granuloma weight
1,"COc1ccc(C(=O)c2ccc(CC(=O)O)n2C)cc1 [5-(p-methoxybenzoyl)-do, 5-(p-Anisoyl)-1-methylpyrrole-2-acetic acid]",about 71 mg

# Same assay, conditions: 100 mg/kg orally, daily for seven days; water controls 115 mg
row,Structure (SMILES),granuloma weight
1,Cn1c(CC#N)ccc1C(=O)c1ccc(Cl)cc1 [5-(p-Chlorobenzoyl)-1-methylpyrrole-2-acetonitrile],about 98 mg
